According to ChEMBL document CHEMBL4043168, “The design and SAR of a novel series of 2-aminopyridine based LRRK2 inhibitors” (Bioorg Med Chem Lett, 2017):
In brackets after ≈: the same amount, converted by molar mass.

Experiments:
[1] = Aqueous solubility of the compound in pH 7.4; type: physicochemical; conditions: aqueous medium
[2] = target: Mitogen-activated protein kinase 10 (Homo sapiens) (UniProt P53779); assay: Inhibition of JNK3 conserved Lys2 (DLKPSNIVVK) in human PBMC at 0.1 uM
[3] = target: Cyclin-dependent kinase 7 (Homo sapiens) (UniProt P50613); assay: Inhibition of CDK7 labeling at conserved Lys2 (DLKPNNLLLDENGVLK) in human PBMC at 1 uM
[4] = target: Serine/threonine-protein kinase Chk2 (Homo sapiens) (UniProt O96017); assay: Inhibition of CHK2 labeling at conserved Lys2 (DLKPENVLLSSQEEDCLIK) in human PBMC at 1 uM
[5] = target: Ribosomal protein S6 kinase alpha-3 (Homo sapiens) (UniProt P51812); assay: Inhibition of RSK2 domain1 activation Loop (LTDFGLSKESIDHEKK) in human PBMC at 1 uM
[6] = target: eIF-2-alpha kinase GCN2 (Homo sapiens) (UniProt Q9P2K8); assay: Inhibition of GCN2 conserved Lys2 (DLKPVNIFLDSDDHVK) in human PBMC at 1 uM
[7] = target: Serine/threonine-protein kinase WNK1 (Homo sapiens) (UniProt Q9H4A3); assay: Inhibition of Wnk1 activation Loop (IGDLGLATLKR) in human PBMC at 0.1 uM; conditions: pooled result: one value given for 4 cell lines, strains, targets or settings
[8] = target: Tyrosine-protein kinase Fer (Homo sapiens) (UniProt P16591); assay: Inhibition of FER conserved Lys2 (TSVAVKTCKEDLPQELK) in human PBMC at 0.1 uM
[9] = target: Interleukin-1 receptor-associated kinase 1 (Homo sapiens) (UniProt P51617); assay: Inhibition of IRAK1 conserved Lys2 (AIQFLHQDSPSLIHGDIKSSNVLLDER) in human PBMC at 0.1 uM
[10] = target: Serine/threonine-protein kinase/endoribonuclease IRE1 (Homo sapiens) (UniProt O75460); assay: Inhibition of IRE1 conserved Lys2 (DLKPHNILISMPNAHGK) in human PBMC at 0.1 uM
[11] = target: PAN2-PAN3 deadenylation complex subunit PAN3 (Homo sapiens) (UniProt Q58A45); assay: Inhibition of PAN3 Protein Kinase Domain (VMDPTKILITGK) in human PBMC at 0.1 uM
[12] = target: Serine/threonine-protein kinase Nek1 (Homo sapiens) (UniProt Q96PY6); assay: Inhibition of NEK1 conserved Lys2 (DIKSQNIFLTK) in human PBMC at 0.1 uM
[13] = target: Serine/threonine-protein kinase Nek7 (Homo sapiens) (UniProt Q8TDX7); assay: Inhibition of NEK7 conserved Lys1 (AACLLDGVPVALKK) in human PBMC at 1 uM
[14] = target: Leucine-rich repeat serine/threonine-protein kinase 2 (Homo sapiens, UniProt Q5S007, G2019S); assay: Inhibition LRRK2 G2019S mutant (unknown origin) Ser935 phosphorylation in HEK293 cells; type: cell-based
[15] = target: Calcium/calmodulin-dependent protein kinase type 1D (Homo sapiens) (UniProt Q8IU85); assay: Inhibition of CaMK1d labeling at conserved Lys2 (DLKPENLLYYSQDEESK) in human PBMC at 1 uM
[16] = target: Serine/threonine-protein kinase SMG1 (Homo sapiens) (UniProt Q96Q15); assay: Inhibition of SMG1 ATP binding site (SYPYLFKGLEDLHLDER) in human PBMC at 1 uM
[17] = target: Serine/threonine-protein kinase WNK2 (Homo sapiens) (UniProt Q9Y3S1); assay: Inhibition of Wnk2 activation Loop (IGDLGLATLKR) in human PBMC at 1 uM
[18] = target: Mitogen-activated protein kinase 13 (Homo sapiens) (UniProt O15264); assay: Inhibition of p38d conserved Lys2 (DLKPGNLAVNEDCELK) in human PBMC at 1 uM
[19] = target: Ribosomal protein S6 kinase alpha-3 (Homo sapiens) (UniProt P51812); assay: Inhibition of RSK2 domain1 ATP binding site (VLGQGSFGKVFLVK) in human PBMC at 0.1 uM
[20] = target: Mitogen-activated protein kinase kinase kinase 4 (Homo sapiens) (UniProt Q9Y6R4); assay: Inhibition of MAP3K4 conserved Lys2 (DIKGANIFLTSSGLIK) in human PBMC at 1 uM
[21] = target: Serine/threonine-protein kinase WNK3 (Homo sapiens) (UniProt Q9BYP7); assay: Inhibition of Wnk3 conserved Lys2 (DLKCDNIFITGPTGSVK) in human PBMC at 1 uM
[22] = target: Serine/threonine-protein kinase 26 (Homo sapiens) (UniProt Q9P289); assay: Inhibition of MST4 conserved Lys2 (DIKAANVLLSEQGDVK) in human PBMC at 0.1 uM
[23] = target: Serine/threonine-protein kinase 10 (Homo sapiens) (UniProt O94804); assay: Inhibition of LOK conserved Lys2 (DLKAGNVLMTLEGDIR) in human PBMC at 1 uM; conditions: pooled result: one value given for 6 cell lines, strains, targets or settings
MDR1 = assay: Efflux ratio of apparent permeability from basolateral to apical over apical to basolateral side in MDCK cells harboring MDR1; type: ADME, cell-based, Canis lupus familiaris; conditions: dog

Ribosomal protein S6 kinase alpha-3 (Homo sapiens), sequence (P51812 whole entry, the tested form may be a part): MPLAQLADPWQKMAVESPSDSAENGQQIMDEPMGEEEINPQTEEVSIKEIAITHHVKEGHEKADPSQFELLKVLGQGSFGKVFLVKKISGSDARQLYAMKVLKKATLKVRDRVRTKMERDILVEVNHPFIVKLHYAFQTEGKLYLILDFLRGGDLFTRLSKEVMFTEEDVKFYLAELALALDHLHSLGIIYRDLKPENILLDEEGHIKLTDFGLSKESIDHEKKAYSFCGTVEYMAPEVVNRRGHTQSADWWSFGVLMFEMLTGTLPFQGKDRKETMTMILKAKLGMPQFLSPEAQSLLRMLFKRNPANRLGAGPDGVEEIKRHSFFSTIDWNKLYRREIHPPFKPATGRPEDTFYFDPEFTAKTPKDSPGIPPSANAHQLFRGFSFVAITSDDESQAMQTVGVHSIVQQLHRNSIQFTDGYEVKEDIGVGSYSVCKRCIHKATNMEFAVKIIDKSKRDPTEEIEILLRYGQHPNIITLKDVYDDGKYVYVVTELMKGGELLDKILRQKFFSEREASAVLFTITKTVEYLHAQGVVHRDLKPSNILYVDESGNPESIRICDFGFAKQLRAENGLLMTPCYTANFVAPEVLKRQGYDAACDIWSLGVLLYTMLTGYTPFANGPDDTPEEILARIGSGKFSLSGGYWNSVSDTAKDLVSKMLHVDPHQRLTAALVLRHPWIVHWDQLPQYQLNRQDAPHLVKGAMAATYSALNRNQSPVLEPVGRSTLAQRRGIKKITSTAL
Mitogen-activated protein kinase 10 (Homo sapiens), sequence (P53779 whole entry): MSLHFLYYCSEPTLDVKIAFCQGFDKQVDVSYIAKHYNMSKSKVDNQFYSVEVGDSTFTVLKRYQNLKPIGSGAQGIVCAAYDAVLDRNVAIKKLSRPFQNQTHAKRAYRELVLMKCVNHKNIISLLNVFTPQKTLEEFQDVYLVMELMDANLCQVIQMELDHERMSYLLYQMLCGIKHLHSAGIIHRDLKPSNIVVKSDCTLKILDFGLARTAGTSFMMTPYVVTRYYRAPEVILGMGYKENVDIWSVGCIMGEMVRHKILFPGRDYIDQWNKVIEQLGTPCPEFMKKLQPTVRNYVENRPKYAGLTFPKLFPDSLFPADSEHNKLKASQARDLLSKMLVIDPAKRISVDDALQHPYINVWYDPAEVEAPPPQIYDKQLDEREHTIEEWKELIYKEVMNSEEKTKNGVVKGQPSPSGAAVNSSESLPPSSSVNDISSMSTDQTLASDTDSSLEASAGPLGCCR
Serine/threonine-protein kinase Nek1 (Homo sapiens), sequence (Q96PY6 whole entry): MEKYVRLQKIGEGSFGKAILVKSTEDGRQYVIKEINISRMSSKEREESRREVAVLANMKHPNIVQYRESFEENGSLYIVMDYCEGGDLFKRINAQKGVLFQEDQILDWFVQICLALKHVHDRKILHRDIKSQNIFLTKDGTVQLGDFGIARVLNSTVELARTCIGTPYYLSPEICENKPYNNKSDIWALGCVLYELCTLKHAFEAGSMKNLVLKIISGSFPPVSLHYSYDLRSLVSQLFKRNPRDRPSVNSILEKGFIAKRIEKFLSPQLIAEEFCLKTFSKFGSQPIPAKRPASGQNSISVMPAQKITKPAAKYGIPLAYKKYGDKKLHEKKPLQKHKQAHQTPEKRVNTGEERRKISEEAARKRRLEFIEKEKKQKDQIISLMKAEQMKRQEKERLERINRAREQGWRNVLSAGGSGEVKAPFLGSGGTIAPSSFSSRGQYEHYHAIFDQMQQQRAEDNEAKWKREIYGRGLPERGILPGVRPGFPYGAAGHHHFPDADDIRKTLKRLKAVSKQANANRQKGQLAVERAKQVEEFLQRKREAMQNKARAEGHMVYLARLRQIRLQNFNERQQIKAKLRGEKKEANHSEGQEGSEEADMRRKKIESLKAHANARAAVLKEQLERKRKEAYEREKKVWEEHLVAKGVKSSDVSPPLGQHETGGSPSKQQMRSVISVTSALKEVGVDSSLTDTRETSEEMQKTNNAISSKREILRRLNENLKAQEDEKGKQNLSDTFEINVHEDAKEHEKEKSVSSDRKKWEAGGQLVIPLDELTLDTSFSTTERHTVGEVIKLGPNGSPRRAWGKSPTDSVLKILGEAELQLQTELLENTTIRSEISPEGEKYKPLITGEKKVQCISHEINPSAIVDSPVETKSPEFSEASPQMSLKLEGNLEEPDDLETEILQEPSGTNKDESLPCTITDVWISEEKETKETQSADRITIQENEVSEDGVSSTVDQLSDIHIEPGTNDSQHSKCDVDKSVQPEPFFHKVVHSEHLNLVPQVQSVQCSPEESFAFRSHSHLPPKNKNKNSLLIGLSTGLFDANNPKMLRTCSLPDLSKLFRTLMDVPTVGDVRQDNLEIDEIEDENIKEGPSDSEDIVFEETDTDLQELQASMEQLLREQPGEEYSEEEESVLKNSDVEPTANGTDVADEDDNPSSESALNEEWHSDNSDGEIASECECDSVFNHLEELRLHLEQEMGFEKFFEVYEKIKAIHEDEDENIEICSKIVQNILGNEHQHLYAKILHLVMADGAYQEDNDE
Interleukin-1 receptor-associated kinase 1 (Homo sapiens), sequence (P51617 whole entry, looked up): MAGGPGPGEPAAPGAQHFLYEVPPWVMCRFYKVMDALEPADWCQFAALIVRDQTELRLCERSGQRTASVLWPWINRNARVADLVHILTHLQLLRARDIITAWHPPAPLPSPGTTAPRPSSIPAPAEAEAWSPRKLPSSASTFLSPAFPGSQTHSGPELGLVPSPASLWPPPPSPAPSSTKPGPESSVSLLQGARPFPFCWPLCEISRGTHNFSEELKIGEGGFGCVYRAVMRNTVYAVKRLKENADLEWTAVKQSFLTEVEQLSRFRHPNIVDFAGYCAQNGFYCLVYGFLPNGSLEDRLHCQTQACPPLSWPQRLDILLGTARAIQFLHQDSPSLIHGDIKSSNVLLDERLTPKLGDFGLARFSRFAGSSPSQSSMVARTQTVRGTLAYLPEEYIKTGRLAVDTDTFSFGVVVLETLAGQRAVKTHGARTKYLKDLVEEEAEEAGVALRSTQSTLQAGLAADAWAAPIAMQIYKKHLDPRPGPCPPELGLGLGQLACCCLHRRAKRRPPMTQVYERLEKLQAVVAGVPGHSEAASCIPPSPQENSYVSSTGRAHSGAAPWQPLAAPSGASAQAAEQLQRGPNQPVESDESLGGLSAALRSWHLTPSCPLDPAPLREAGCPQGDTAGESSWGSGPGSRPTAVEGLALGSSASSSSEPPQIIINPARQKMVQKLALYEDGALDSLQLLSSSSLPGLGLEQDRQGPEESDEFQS
Serine/threonine-protein kinase 26 (Homo sapiens), sequence (Q9P289 2-416 limits assumed): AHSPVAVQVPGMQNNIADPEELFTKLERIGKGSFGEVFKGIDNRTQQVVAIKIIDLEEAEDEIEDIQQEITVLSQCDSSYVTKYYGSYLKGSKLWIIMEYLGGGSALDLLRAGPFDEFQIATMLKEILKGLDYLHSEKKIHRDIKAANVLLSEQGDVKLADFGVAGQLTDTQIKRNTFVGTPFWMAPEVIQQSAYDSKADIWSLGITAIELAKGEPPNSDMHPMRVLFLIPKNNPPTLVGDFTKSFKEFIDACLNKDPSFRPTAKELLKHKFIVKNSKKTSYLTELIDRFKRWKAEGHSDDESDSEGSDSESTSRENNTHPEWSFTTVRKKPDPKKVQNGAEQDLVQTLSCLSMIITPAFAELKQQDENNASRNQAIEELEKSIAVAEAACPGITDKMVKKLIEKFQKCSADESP
Calcium/calmodulin-dependent protein kinase type 1D (Homo sapiens), sequence (Q8IU85 whole entry, looked up): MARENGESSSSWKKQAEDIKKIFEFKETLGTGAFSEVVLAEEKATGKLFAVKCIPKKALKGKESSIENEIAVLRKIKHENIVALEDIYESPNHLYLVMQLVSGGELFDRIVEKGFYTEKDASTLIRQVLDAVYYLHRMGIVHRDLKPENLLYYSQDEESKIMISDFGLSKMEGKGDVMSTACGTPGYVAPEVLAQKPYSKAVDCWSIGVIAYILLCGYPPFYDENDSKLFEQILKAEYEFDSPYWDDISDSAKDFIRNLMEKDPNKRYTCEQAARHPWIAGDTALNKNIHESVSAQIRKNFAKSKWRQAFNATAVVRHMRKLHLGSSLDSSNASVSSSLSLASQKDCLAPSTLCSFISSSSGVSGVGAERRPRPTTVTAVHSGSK
Tyrosine-protein kinase Fer (Homo sapiens), sequence (P16591 whole entry, looked up): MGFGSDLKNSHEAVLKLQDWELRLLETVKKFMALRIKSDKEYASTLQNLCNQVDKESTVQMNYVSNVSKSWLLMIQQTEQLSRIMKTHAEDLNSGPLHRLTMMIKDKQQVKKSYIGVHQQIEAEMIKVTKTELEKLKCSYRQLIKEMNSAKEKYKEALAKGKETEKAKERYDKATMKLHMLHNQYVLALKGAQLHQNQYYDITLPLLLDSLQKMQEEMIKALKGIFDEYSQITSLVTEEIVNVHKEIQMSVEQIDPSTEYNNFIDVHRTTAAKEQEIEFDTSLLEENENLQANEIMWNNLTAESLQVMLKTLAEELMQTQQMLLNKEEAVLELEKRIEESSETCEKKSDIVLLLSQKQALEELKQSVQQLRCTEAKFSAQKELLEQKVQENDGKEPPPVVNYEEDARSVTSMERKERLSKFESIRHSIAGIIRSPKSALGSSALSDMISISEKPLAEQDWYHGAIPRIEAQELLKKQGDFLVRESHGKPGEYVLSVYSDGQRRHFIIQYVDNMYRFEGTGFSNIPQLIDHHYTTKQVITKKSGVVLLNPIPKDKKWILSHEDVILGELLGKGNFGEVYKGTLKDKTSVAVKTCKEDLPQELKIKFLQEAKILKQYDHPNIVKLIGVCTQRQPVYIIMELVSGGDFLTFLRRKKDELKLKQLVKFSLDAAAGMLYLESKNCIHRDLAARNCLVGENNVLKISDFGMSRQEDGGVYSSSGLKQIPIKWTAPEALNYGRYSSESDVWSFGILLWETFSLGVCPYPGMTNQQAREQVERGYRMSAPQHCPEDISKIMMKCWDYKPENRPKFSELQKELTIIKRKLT

## CC(C)n1cc(-c2cc(-c3ccc(CN4CCOCC4)cc3)cnc2N)nn1
[1]
  solubility: 36 µg/mL (≈ 95.1 µM)
[2]
  inhibition: 25.1%
[3]
  inhibition: -5.5%
[4]
  inhibition: -7.8%
[5]
  inhibition: 22%
[6]
  inhibition: -2%
[7]
  inhibition: 21.4%
[8]
  inhibition: -1.2%
[9]
  inhibition: 22.7%
[10]
  inhibition: 22.1%
[11]
  inhibition: 6.2%
[12]
  inhibition: 5.5%
[13]
  inhibition: 2.1%
[14]
  IC50: 920 nM
[15]
  inhibition: -0.9%
[16]
  inhibition: 6.6%
[17]
  inhibition: 21.9%
[18]
  inhibition: 14%
[19]
  inhibition: 3.1%
[20]
  inhibition: -0.5%
[21]
  inhibition: 2.2%
[22]
  inhibition: 0.5%
[23]
  inhibition: 14.5%
MDR1
  efflux ratio: 0.68
